# Measurements taken from PMC11170914, “A distinct dimer configuration of a diatom Get3 forming a tetrameric complex with its tail-anchored membrane cargo” (BMC Biology, 2024).
# Molecular target: T1, Pt-Get3a (Phaeodactylum tricornutum, UniProt B7G933)
# T1 construct: gene PHATRDRAFT_22896; full length, residues 1-349; expressed in E. coli; N-terminal 6His tag cleaved by TEV protease
# T1 sequence (B7G933 1-349): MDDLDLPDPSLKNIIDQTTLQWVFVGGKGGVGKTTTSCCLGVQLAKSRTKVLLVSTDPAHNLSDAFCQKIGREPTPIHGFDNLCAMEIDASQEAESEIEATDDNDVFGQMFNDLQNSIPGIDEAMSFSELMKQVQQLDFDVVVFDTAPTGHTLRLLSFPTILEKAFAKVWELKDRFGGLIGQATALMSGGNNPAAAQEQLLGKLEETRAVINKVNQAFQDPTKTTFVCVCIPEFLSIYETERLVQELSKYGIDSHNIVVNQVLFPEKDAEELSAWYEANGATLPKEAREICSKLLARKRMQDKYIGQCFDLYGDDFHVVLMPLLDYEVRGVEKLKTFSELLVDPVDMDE
# Test: X-ray crystallography, […] Å
# Settings: co-crystal with 2 mM ADP, 2 mM MgCl2, 2 mM AlCl3, 8 mM NaF, pH 4.7, 25 °C; Mg2+/ADP in nucleotide-binding domain
compound,measurement,value
Nc1ncnc2c1ncn2[C@@H]1O[C@H](COP(=O)(O)OP(=O)(O)O)[C@@H](O)[C@H]1O [ADP],"X-ray crystallography, 2.32 Å",an ADP and a magnesium ion were observed in the two crystallographic independent monomers
